Blank lines part the entries; values can stand above or below the molecule they belong to. Calls of active or inactive are those of the source. No cut-off for these calls is given here.
How the values were obtained:
[1] = Aqueous solubility of the compound; type: physicochemical; settings: water (aqueous)
Thoracic aorta [2] = experiment: Vasorelaxant activity in Sprague-Dawley rat thoracic aorta with intact endothelium assessed as inhibition of Ca2+-induced contraction after 20 mins; type: functional, tissue-based; settings: for IC50: Rattus norvegicus, Sprague-Dawley, Thoracic aorta, 20 min
Thoracic aorta [3] = experiment: Inhibition of superoxide anion production in Sprague-Dawley rat thoracic aorta with intact endothelium by lucigenin-based chemiluminescence analysis in presence of NADPH; type: functional
Thoracic aorta [4] = experiment: Vasorelaxant activity in Sprague-Dawley rat thoracic aorta with intact endothelium assessed as Ca2+-induced contraction after 20 mins in absence of alkaline phosphatase; type: functional, tissue-based
Thoracic aorta [5] = experiment: Vasorelaxant activity in Sprague-Dawley rat thoracic aorta with intact endothelium assessed as inhibition of Ca2+-induced contraction after 20 mins in presence of alkaline phosphatase; type: functional, tissue-based; settings: for IC50: Rattus norvegicus, Sprague-Dawley, Thoracic aorta, 20 min
Thoracic aorta [6] = experiment: Inhibition of superoxide anion production in Sprague-Dawley rat thoracic aorta with intact endothelium by lucigenin-based chemiluminescence analysis in presence of NADPH and alkaline phosphatase; type: functional
Rattus norvegicus [7] = experiment: Cardioprotective activity in iv dosed Sprague-Dawley rat hindquarters ischemia/reperfusion model assessed as decrease in circulating LDH level administered as bolus injection 5 mins prior to reperfusion by spectrophotometric analysis; type: functional, organism-based
Ovis aries [8] = experiment: Cardioprotective activity in merino sheep ischemia/reperfusion injury model assessed as decrease in infarct size at 6.6 mg/kg, iv administered as bolus dose at 10 mins prior to reperfusion measured 3 hrs post-reperfusion by triphenyltetrazolium chloride staining; type: functional, organism-based; design: dose 6.6 mg/kg
Rattus norvegicus [9] = organism: Rattus norvegicus; experiment: Cardiotoxicity in Sprague-Dawley rat hindquarters ischemia/reperfusion model assessed as change in mean arterial pressure measured following ischemia/reperfusion; type: toxicity, organism-based, Artery; settings: in vivo
Rattus norvegicus [10] = organism: Rattus norvegicus; experiment: Cardiotoxicity in Sprague-Dawley rat hindquarters ischemia/reperfusion model assessed as change in heart rate measured following ischemia/reperfusion by tachometer analysis; type: toxicity, organism-based; settings: in vivo
Ovis aries [11] = experiment: Cardioprotective activity in merino sheep ischemia/reperfusion injury model assessed as infarct size at 5 mg/kg, iv administered as 20 mins infusion at 10 mins prior to reperfusion measured 3 hrs post-reperfusion by triphenyltetrazolium chloride staining (reference value: 80 +/-3%); type: functional
Ovis aries [12] = experiment: Cardioprotective activity in iv dosed merino sheep ischemia/reperfusion injury model assessed as circulating LDH level measured 2 hrs post-reperfusion (reference value: 604 +/-58 U/L); type: functional
[13] = Solubility of the compound in aqueous sodium carbonate; type: physicochemical
Plasma = experiment: Prodrug conversion in Sprague-Dawley rat plasma assessed as 3',4'-dihydroxyflavonol formation at 6.6 mg/kg, iv measured within 2 mins of drug administration by LC-MS/MS analysis; type: ADME, organism-based; design: dose 6.6 mg/kg, route intravenous; settings: in vivo
Thoracic aorta [14] = experiment: Vasorelaxant activity in Sprague-Dawley rat thoracic aorta with intact endothelium assessed as Ca2+-induced contraction after 20 mins in absence of butyrylcholinesterase; type: functional, tissue-based
Thoracic aorta [15] = experiment: Vasorelaxant activity in Sprague-Dawley rat thoracic aorta with intact endothelium assessed as inhibition of Ca2+-induced contraction pretreated with butyrylcholinesterase for 1 hr; type: functional, tissue-based; settings: for IC50: Rattus norvegicus, Sprague-Dawley, Thoracic aorta
Thoracic aorta [16] = experiment: Inhibition of superoxide anion production in Sprague-Dawley rat thoracic aorta with intact endothelium by lucigenin-based chemiluminescence analysis in presence of NADPH and absence of butyrylcholinesterase; type: functional, tissue-based
Thoracic aorta [17] = experiment: Inhibition of superoxide anion production in Sprague-Dawley rat thoracic aorta with intact endothelium pretreated with butyrylcholinesterase for 1 hr by lucigenin-based chemiluminescence analysis in presence of NADPH; type: functional
Ovis aries [18] = experiment: Cardioprotective activity in merino sheep ischemia/reperfusion injury model assessed as circulating LDH level 6.6 mg/kg, iv administered as bolus dose at 10 mins prior to reperfusion measured 3 hrs post-reperfusion by automated analyzer (reference value: 152 +/-50 U/L); type: functional

- solubility [1]: < 1 mg/mL
- IC50 (Thoracic aorta [2]): 4.27 µM
SMILES: O=c1c(O)c(-c2ccccc2)oc2ccccc12 [FLAVONOL]
- Rmax (Thoracic aorta [2]): 19%
- Rmax (Thoracic aorta [3]): 20%

- solubility [1]: > 200 mg/mL
- IC50 (Thoracic aorta [5]): 3.98 µM
SMILES: O=c1c(OP(=O)([O-])[O-])c(-c2ccc(O)cc2)oc2ccccc12.[Na+].[Na+]
- Activity (Thoracic aorta [4]): inactive
- Rmax (Thoracic aorta [5]): 63%
- Rmax (Thoracic aorta [6]): 27%
- Activity (Rattus norvegicus [7]): Active
- Activity (Ovis aries [8]): Active
- Activity (Rattus norvegicus [9]): Non-toxic
- Activity (Rattus norvegicus [10]): Non-toxic

- solubility [1]: > 200 mg/mL
- IC50 (Thoracic aorta [5]): 4.68 µM
SMILES: O=c1c(OP(=O)([O-])[O-])c(-c2ccccc2)oc2ccccc12.[Na+].[Na+]
- Activity (Thoracic aorta [4]): inactive
- Rmax (Thoracic aorta [5]): 40%
- Rmax (Thoracic aorta [6]): 36%

- solubility [1]: < 1 mg/mL
- IC50 (Thoracic aorta [2]): 11.7 µM
SMILES: O=c1c(O)c(-c2ccc(O)cc2)oc2ccccc12
- Rmax (Thoracic aorta [2]): 70%
- Rmax (Thoracic aorta [3]): 62%

The next lines start with the molecule.

SMILES: O=c1c(O)c(-c2ccc(O)c(O)c2)oc2ccccc12
- Rmax (Thoracic aorta [2]): 89%
- IC50 (Thoracic aorta [2]): 9.55 µM
- Rmax (Thoracic aorta [3]): 84%
- Activity (Ovis aries [11]): 50%
- Activity (Ovis aries [12]): 405 U/L
- Activity (Rattus norvegicus [9]): Non-toxic
- Activity (Rattus norvegicus [10]): Non-toxic

SMILES: O=C(O)CCCCC(=O)Oc1c(-c2ccc(O)c(O)c2)oc2ccccc2c1=O
- solubility [13]: > 50 mg/mL
- Drug metabolism (Plasma): Active
- Activity (Thoracic aorta [14]): inactive
- Rmax (Thoracic aorta [15]): 76%
- IC50 (Thoracic aorta [15]): 33.9 µM
- inhibition (Thoracic aorta [16]): inactive
- Rmax (Thoracic aorta [17]): 70%
- Activity (Rattus norvegicus [7]): Active
- Activity (Ovis aries [8]): Active
- Activity (Ovis aries [18]): 70 U/L
- Activity (Rattus norvegicus [9]): Non-toxic
- Activity (Rattus norvegicus [10]): Non-toxic

SMILES: O=C(O)CCCCC(=O)Oc1c(-c2ccc(O)cc2)oc2ccccc2c1=O
- solubility [13]: > 50 mg/mL
- Activity (Thoracic aorta [14]): inactive
- Rmax (Thoracic aorta [15]): 70%
- IC50 (Thoracic aorta [15]): 35.5 µM
- inhibition (Thoracic aorta [16]): inactive
- Rmax (Thoracic aorta [17]): 30%
